Consider 15 compounds from ChEMBL document CHEMBL4732117, “Small Molecule Approaches for Targeting the Polycomb Repressive Complex 2 (PRC2) in Cancer” (J Med Chem, 2020).

As a reminder, the IC50 is the concentration that inhibits the measured activity by half. One may read the Ki as a measure of affinity in units of concentration, obtained from inhibition or displacement. Lower therefore signals a stronger hold on the target. For orientation: GI50 means the concentration giving 50% growth inhibition. A higher GI50 goes with less potent growth inhibition. A word on the Kd: it is the constant that tells how readily two partners part at equilibrium. As usually defined, the Cmax is the maximum level reached in the sampled fluid or tissue.

The target of data set [1] is T1, Histone-lysine N-methyltransferase EZH2 (Homo sapiens, UniProt Q15910). The data set can be described thus: Inhibition of EZH2 in PRC2 complex (unknown origin) expressed in Sf9 cells using histone H3 (21 to 44)-lys (biotin) and SAM as substrate incubated for 90 mins by radiometric scintillation proximity assay. On the technique in general: Scintillation proximity formats need no separation of bound from free tracer.

Data set [2] concerns the target T2, Polycomb protein EED (Homo sapiens, UniProt O75530). The data set can be described thus: Binding affinity to EED (unknown origin) by TR-FRET based binding assay. In general terms: Time-resolved FRET reads energy transfer from a long-lived donor to a nearby acceptor.
The target in data set [3] is T3, Histone-lysine N-methyltransferase EZH1 (Homo sapiens, UniProt Q92800).
T3 sequence (Q92800 whole entry): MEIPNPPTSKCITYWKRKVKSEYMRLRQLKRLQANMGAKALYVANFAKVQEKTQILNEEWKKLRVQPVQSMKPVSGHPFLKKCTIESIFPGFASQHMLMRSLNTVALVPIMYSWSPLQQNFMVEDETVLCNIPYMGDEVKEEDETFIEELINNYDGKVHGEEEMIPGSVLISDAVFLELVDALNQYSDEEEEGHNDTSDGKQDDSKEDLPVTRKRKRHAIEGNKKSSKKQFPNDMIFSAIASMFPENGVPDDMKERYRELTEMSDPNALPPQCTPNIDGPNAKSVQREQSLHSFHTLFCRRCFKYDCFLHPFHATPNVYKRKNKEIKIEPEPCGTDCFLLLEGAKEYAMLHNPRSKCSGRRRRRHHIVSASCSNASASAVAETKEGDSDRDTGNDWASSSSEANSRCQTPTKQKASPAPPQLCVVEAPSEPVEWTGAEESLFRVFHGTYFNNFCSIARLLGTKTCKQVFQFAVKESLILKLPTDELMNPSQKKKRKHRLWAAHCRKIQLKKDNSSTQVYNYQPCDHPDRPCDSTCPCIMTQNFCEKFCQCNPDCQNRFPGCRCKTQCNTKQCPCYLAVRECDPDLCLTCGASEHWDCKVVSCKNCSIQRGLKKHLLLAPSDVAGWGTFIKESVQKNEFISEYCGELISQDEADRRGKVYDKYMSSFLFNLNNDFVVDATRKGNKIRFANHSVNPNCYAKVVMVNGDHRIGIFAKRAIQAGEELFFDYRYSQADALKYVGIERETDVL
Put plainly: Inhibition of EZH1 in PRC2 complex (unknown origin) using biotinylated peptide as substrate in presence of S-adenosylmethionine.

Data set [4] is described as follows: Plasma concentration in SCID mouse xenografted with human G-401 cells at 125 mg/kg, po BID administered for 21 days and measured at 3 hrs post dose on day 21 by LC-MS/MS analysis. The conditions noted are these: time 21 day. It counts as ADME, organism-based. For orientation: Xenograft models place foreign cells or tissue in a host animal.
Data set [5] has as its target von Hippel-Lindau disease tumor suppressor/Polycomb protein EED (Homo sapiens) (UniProt O75530+P40337). Put plainly: Induction of VHL-mediated EED degradation in human HeLa cells at 5 uM incubated for 24 hrs by Western blot analysis relative to control. It counts as cell-based.
The target in data set [6] is T1, Histone-lysine N-methyltransferase EZH2. The data set can be described thus: Inhibition of wild type EZH2 in human PRC2 complex using S-adenosylmethionine and biotinylated histone peptides as substrate.
Data set [7] in a line: Plasma concentration in mouse xenografted with human Karpas-422 cells at 40 mg/kg, po. Type of data set: ADME, organism-based. The settings on record: in vivo.
Data set [8] concerns the target T2, Polycomb protein EED. Put plainly: Displacement of UNC5114-biotin tracer ligand from N-terminal 6His-tagged EED (1 to 441 residues) (unknown origin) expressed in Escherichia coli Rosetta2 BL21(DE3)pLysS cells measured after 1 hr by TR-FRET analysis.
Data set [9] addresses T2, Polycomb protein EED. The data set can be described thus: Binding affinity to EED in PRC2 complex (unknown origin) using H3K27me0 (21 to 44 residue) peptide as substrate by LC-MS analysis.
Data set [10] concerns the target T2, Polycomb protein EED. The data set can be described thus: Displacement of OG(488) labeled probe from GST-tagged EED (unknown origin) incubated for 1 hr by lanthaScreen TR-FRET method.
Data set [11] in a line: Drug concentration in nucleus of human G401 cells assessed per million cells at 10 uM incubated for 2 hrs by UPLC-MS analysis. Type of data set: ADME, subcellular. The conditions noted are these: g-401, 2 h.
Data set [12] deals with KARPAS-422. Put plainly: Antiproliferative activity against human Karpas422 cells after 14 days by celltiter-glo luminescent cell viability assay. It counts as functional. The settings on record: KARPAS-422, 336 h, time 14 day.
Data set [13] is described as follows: Drug concentration in cytoplasm of human G401 cells assessed per million cells at 10 uM incubated for 2 hrs by UPLC-MS analysis. Type of data set: ADME, subcellular. The conditions noted are these: g-401, 2 h.
Data set [14] has as its target T2, Polycomb protein EED. Put plainly: Binding affinity to human N-terminal His6-tagged/thrombin cleavage site fused/ AVI-tagged EED (1 to 441 residues) expressed in Escherichia coli BL21(DE3) cells by surface plasmon resonance method.
Data set [15] is described as follows: Plasma concentration in Swiss albino mouse at 50 mg/kg, ip measured up to 24 hrs by LC-MS/MS analysis. Type of data set: ADME, organism-based.
In data set [16] the target is T2, Polycomb protein EED. The data set can be described thus: Displacement of 3-FAM from N-terminal 6His-tagged full length EED (unknown origin) expressed in Escherichia coli Rosetta2 BL21(DE3)pLysS incubated for 30 mins by fluorescence polarization assay.
Data set [17] relates to CT26. The data set can be described thus: Antitumor activity against mouse CT26 cells implanted in NOD/SCID mouse assessed as tumor growth inhibition at 30 mg/kg, PO relative to control. Type of data set: functional. The settings on record: read-out: TGI.
A short description of data set [18]: Time at which plasma concentration stays above cellular IC50 for inhibition of EZH2 in Swiss albino mouse at 50 mg/kg, PO. It counts as organism-based. The settings on record: in vivo.
Data set [19] is described as follows: Cmax in Swiss albino mouse at 150 mg/kg, ip measured after 0.08 to 24 hrs. The conditions noted are these: in vivo. Also on record: route intraperitoneal, time 0.08-24 hrs, dose 150 mg/kg. It counts as ADME, organism-based.
For data set [20], the target named is T1, Histone-lysine N-methyltransferase EZH2. Put plainly: Inhibition of EZH2 in PRC2 complex (unknown origin) using biotinylated peptide as substrate in presence of S-adenosylmethionine.
The nature of data set [21]: Time at which plasma concentration stays above cellular IC50 for inhibition of EZH2 in Swiss albino mouse at 50 to 150 mg/kg, ip. Type of data set: organism-based. The settings on record: in vivo, dose 50-150 mg/kg.
Data set [22] in a line: Time at which plasma concentration stays above cellular IC50 for inhibition of EZH2 in Swiss albino mouse at 15 mg/kg, ip. Type of data set: organism-based. The conditions noted are these: in vivo.

SMILES strings stand for the structures. Where a SMILES comes first, the peptide text is derived from it. [ ]: non-standard residue; d: D form. Lys(Me3) = C[N+](C)(C)CCCC[C@H](N)C(=O)O

T2 sequence (O75530 whole entry): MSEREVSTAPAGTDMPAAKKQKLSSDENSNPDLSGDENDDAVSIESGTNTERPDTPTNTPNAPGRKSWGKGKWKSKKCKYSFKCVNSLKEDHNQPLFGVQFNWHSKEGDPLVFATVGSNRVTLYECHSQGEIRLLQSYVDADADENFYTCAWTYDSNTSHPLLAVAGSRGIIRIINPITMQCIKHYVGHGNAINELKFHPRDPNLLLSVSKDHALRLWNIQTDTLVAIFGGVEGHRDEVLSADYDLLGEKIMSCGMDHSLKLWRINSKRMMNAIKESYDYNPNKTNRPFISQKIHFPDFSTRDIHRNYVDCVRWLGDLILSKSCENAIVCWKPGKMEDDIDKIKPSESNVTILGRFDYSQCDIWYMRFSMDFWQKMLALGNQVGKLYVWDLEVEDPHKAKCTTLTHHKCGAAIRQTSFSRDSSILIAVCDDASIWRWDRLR
T1 sequence (Q15910 whole entry): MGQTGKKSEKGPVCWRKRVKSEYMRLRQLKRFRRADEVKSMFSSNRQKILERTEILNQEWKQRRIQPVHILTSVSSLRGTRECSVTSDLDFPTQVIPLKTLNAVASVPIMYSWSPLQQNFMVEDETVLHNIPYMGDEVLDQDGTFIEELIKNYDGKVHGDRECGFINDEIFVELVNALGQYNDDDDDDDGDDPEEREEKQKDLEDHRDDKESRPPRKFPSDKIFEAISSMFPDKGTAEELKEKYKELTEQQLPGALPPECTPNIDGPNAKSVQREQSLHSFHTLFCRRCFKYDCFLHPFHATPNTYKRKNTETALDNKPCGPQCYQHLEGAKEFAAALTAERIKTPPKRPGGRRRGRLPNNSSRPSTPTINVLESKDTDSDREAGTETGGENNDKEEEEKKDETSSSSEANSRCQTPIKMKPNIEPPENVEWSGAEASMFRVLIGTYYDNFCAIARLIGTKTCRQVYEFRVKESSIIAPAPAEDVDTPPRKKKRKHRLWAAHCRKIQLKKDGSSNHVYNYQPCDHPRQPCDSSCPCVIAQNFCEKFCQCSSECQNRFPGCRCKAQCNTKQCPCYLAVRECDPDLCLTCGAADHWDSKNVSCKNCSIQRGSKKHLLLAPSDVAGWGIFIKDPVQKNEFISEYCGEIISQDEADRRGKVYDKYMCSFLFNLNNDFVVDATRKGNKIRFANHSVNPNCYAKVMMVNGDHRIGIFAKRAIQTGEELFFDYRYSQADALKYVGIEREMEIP
von Hippel-Lindau disease tumor suppressor/Polycomb protein EED (Homo sapiens), sequence (O75530 2-441 limits assumed): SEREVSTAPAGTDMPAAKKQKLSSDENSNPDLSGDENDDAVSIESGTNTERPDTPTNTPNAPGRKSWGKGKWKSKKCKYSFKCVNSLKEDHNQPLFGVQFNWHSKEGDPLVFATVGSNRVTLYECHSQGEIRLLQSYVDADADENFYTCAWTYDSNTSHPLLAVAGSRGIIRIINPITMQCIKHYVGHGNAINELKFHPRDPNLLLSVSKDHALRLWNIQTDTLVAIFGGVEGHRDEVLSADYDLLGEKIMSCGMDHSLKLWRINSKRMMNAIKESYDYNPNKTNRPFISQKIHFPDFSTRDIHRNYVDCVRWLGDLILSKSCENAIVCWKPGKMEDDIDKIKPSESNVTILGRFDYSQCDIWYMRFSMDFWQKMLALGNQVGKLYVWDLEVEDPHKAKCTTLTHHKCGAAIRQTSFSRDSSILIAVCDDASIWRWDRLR
von Hippel-Lindau disease tumor suppressor/Polycomb protein EED (Homo sapiens), sequence (P40337 whole entry partner): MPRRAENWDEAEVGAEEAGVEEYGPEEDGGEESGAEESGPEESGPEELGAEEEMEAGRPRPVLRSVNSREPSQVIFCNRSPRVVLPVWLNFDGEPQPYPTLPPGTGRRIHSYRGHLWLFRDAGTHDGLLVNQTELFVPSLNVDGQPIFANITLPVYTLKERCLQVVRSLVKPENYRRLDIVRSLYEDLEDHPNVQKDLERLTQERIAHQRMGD

The compound `CCCc1cc(C)[nH]c(=O)c1CNC(=O)c1cc(-c2ccc(N3CCN(C)CC3)nc2)nc2c1cnn2C(C)C` yielded an IC50 in data set [1] of 11 nM.

Compound `CN(C)[C@H]1CN(C2CCc3cccc(F)c32)C[C@@H]1c1cn(C)c2ccccc12` (stereo not given in full) gave a Ki in [2] of 11 nM.

`Cc1cc(C)c(CNC(=O)c2cc(-c3ccc(CN4CCOCC4)cc3)cc3c2cnn3C2CCCC2)c(=O)[nH]1`: the 50% inhibitory concentration (IC50) in data set [3] turned out to be 45 nM. This compound had a concentration at 504 h in [4] of 8 µM.

With `Cc1ncsc1-c1ccc(CNC(=O)[C@@H]2C[C@@H](O)CN2C(=O)[C@@H](NC(=O)CCCNC(=O)c2ccc(-c3cnc(NCc4ccco4)n4cnnc34)cc2)C(C)(C)C)cc1`, the Activity in data set [5] was 80%.

With `Cc1cc(C)c(CNC(=O)c2cc(-c3ccc(CN4CCOCC4)cc3)cc3c2cnn3C(C)C)c(=O)[nH]1`, the affinity in data set [6] corresponds to a Ki of 80 nM.

In data set [7], `CS(=O)(=O)c1ccc(-c2cnc(NCc3ccco3)n3cnnc23)cc1` had a concentration above 30 µM. Also, the values for the concentration for half-maximal inhibition (IC50) in data set [8] and in [9] were 45 nM and 23.4 nM, respectively.

Compound `CN(C)[C@H]1CN(Cc2ccccc2)C[C@@H]1c1ccc(N2CCN(S(C)(=O)=O)CC2)cc1` gave an inhibition constant Ki in data set [10] of 1830 nM.

On to `Cc1nc(CCC(=O)NCCCCC(=O)N[C@H](C(=O)N2C[C@H](O)C[C@H]2C(=O)NCc2ccc(-c3scnc3C)cc2)C(C)(C)C)ccc1-c1cnc(NCc2c(F)ccc3c2CCO3)n2cnnc12`, for which the figures for the Drug uptake in data set [11] and in [13] were 0.79 pmol and 0.03 pmol, respectively. The same compound showed a concentration for 50% growth inhibition (GI50) in data set [12] of 57 nM. For the same compound, the equilibrium dissociation constant (Kd) in data set [14] is below 1 nM.

`Cc1cc(C)c(CNC(=O)c2cc(-c3ccc(N4CCN(CCNC(=O)CC56CC7CC(CC(C7)C5)C6)CC4)nc3)cc3c2cnn3C(C)C)c(=O)[nH]1` returned a concentration at 24 h in [15] above 1 µM.

As for `Cc1nc(CCC(=O)NCCOc2ccc(OCC(=O)N[C@H](C(=O)N3C[C@H](O)C[C@H]3C(=O)NCc3ccc(-c4scnc4C)cc3)C(C)(C)C)cc2)ccc1-c1cnc(NCc2c(F)ccc3c2CCO3)n2cnnc12`, the Drug uptake is 37.2 pmol in data set [11] and 4.69 pmol in data set [13]. Further, in [12], halving of growth (GI50) required 45 nM. Besides, in [14], the Kd is below 1 nM.

With `COC(=O)[C@H](C)NC(=O)[C@H](Cc1ccccc1)NC(=O)[C@H](CCCC[N+](C)(C)C)NC(=O)[C@H](CCCNC(=N)N)NC(=O)[C@@H](N)CCC(N)=O` (H-QR[Lys(Me3)]FA-OMe), in data set [16], the IC50 was 14800 nM.

On to `Cc1ncccc1-c1cnc(NCc2c(F)ccc3c2CCO3)n2cnnc12`, for which, in data set [17], the inhibition in vivo at 30 mg/kg was found to be 59%.

In the case of `CNC(=O)CCc1ccc(-c2cnc(NCc3c(F)ccc4c3CCO4)n3cnnc23)c(C)n1`, the figures for the Drug uptake in data set [11] and in data set [13] were 0.19 pmol and 0.34 pmol, respectively. For the same compound, in [12], halving of growth (GI50) required 14 nM.

`Cc1cc(C)c(CNC(=O)c2cc(-c3ccc4c(c3)OCCO4)nc3c2cnn3C(C)C)c(=O)[nH]1` came in with a Ki in data set [6] of 310 nM.

With `CCCc1cc(C)[nH]c(=O)c1CNC(=O)c1cc(-c2ccc(N3CCN(C(C)C)CC3)nc2)cc2c1cnn2C(C)C`, the Time is 20 h in [18], 24 h in data set [21] and 12 h in data set [22]. In data set [19], the concentration peaked (Cmax) at 12 µM. Also, the IC50 in [20] stood at 2 nM.
